Assay results as given in patent US6809091B1, “Substances capable of inducing apoptosis” (Takara Bio Inc., priority 1998, dated 2004).

Experiments:
[1] = test system: hepatoblastoma HepG2 cells; test: cell growth of HepG2 cells, Premix WST-1; format: cell-based, human
Experimental: HepG2 cells (ACTT HB-8065) which were the cell strains established from the patients suffering from primary hepatoblastoma were suspended in a DMEM medium (manufactured by Gibco) containing 10% of FBS (manufactured by BioWhittaker) to an extent of 3.8×10^3 cells/ml, each 200 μl of the suspension were placed in each well of a 96-well microtiter plate and incubated at 37° C. in the presence of 5% carbon dioxide gas until the cells saturated in an incubator, the medium was exchanged, then 4-hydroxy-2-cyclopenten-1-one or […], the mixture was incubated for 24, 48 or 72 hours, 10 μl of Premix WST-1 (MK 400; manufactured by Takara Shuzo) were added thereto, the mixture was made to react at 37° C. for three hours and the value (A450-650) obtained by subtracting the absorbance at 650 nm (A650) from that at 450 nm (A450) was defined as a degree of cell growth.

[2] = test system: heat shock protein of 70 kDa in HL-60; test: induction of heat shock protein of 70 kDa, SDS-PAGE and blotting; format: cell-based, human; design: key: “−” means no induction; “±” means a little induction; “+” shows the intensity of induction and the more the “+”, the more the induction; ++: “+” shows the intensity of induction and the more the “+”, the more the induction; +++: “+” shows the intensity of induction and the more the “+”, the more the induction; conditions: six hours
Experimental: Each 5 ml of an RPMI 1640 medium containing 10% of FBS containing 2×10^5 cells/ml of HL-60 (ATCC CCL-240) were placed in each well of a six-well plate, incubated at 37° C. for 24 hours in the presence of 5% CO2, then 4,5-dihydroxy-2-pentenal was added to make the final concentration 0, 12.5, 25, 50 or 100 μM or 4-hydroxy-2-cyclopenten-1-one was added to make the final concentration 0, 2.5, 5, 10, 20, 40 or 80 μM and the mixture was incubated for six hours more.
After completion of the incubation, cell numbers were counted and then the cells were recovered by centrifugation and washed with PBS to prepare the cells treated with each of the samples. In addition, cells which were heated at 45° C. for five minutes followed by subjecting to the same incubation were prepared as well.
The cells treated as such were then subjected to an SDS-PAGE according to a method mentioned in “Molecular Cloning” (Cold Spring Harbor Laboratory Press, 1989). Thus, the cells were suspended in an SDS-PAGE sample buffer to make the concentration 2.5×10^6 cells/ml, the resulting cell suspension was treated at 100° C. for ten minutes, each 5 μl thereof were applied to two sheets of SDS-PAGE gel (a 5% stacking gel and a 10% separation gel) and an electrophoresis was carried out. One of the gels was stained with Coomassie while another was subjected to a blotting to polyvinylidene difluoride transfer membrane (Immobilon™ manufactured by MILLIPORE; catalog no. IPVH000-10). This membrane was subjected to a blocking overnight at 4° C. using Block Ace (manufactured by Dainippon Pharmaceutical; catalog no. UK-B25).
The membrane which was subjected to a blocking as such was made to react with monoclonal antibody HSP 72/73 (Ab-1) (manufactured by Oncogene Research Products; catalog no. HSP01) which specifically reacted with heat-induced heat shock protein of 70 kDa, washed with TBS containing 0.05% Tween 20 and further washed with TBS. After that, it was made to react with peroxidase-compounded secondary antibody HRP-Rabbit Anti Mouse IgG (H+L) (manufactured by ZYMED Laboratories; catalog no. 61-6520) and washed as same as in the previous operation. The membrane which was made to react with the primary antibody and the secondary antibody as such was made to react with RENAISSANCE™ (a chemiluminol reagent manufactured by Dupont NEN, catalog no. NEL-100) and then exposed to X-ray film to confirm the induction of the heat shock protein of 70 kDa.

mice = test: acute toxicity, single oral administration; format: in vivo; conditions: single oral administration of 100 mg/kg
Experimental: When a physiologically active effective dose of the heat-treated product of the present invention and partially purified product thereof and the compound of the present invention are/is administered to mice, no acute toxicity is noted.

U937 cells = test: cell growth of U937 cells, Premix WST-1; format: cell-based, human
Experimental: (1) U937 cells (ATCC CRL-1593) which were […] established from pleural effusion of patients suffering from […] were suspended in an RPMI 1640 medium containing 10% of FBS to make its concentration 5×10^5 cells/ml and each 100 μl of the suspension was placed in each well of a 96-well microtiter plate. […] The mixture was incubated at 37° C. in the presence of carbon dioxide gas and, after 24, 48 and 72 hours, 10 μl of Premix WST-1 (MK 400; manufactured by Takara Shuzo) were added. The mixture was made to react at 37° C. for three hours and the value (A450-650) obtained by subtracting the absorbance at 650 nm (A650) from that at 450 nm (A450) was defined as a degree of cell growth.

human FGF-β = test: cytokine production in DSEK cells, ELISA; format: cell-based; conditions: DSEK cell incubation, supernatant every 24 hours
Experimental: Now, in the DSEK cell incubation, 150 μl/well of the supernatant liquid of the medium were recovered every 24 hours and influence of 4-hydroxy-2-cyclopenten-1-one or 4,5-dihydroxy-2-pentenal on the production of cytokines (human TGF-β, human FGF-β, human IL-1α and human IL-10) was measured using an ELISA-kit specific to each of the cytokine (the kit manufactured by INTERGEN or human FGF-β and human IL-10; and the kit manufactured by Promega for human IL-1α and human TGF-β).

| SMILES | Degree of Cell Growth ([1]; 25 μM, 24 hours) | Degree of Cell Growth ([1]; 25 μM, 48 hours) | Degree of Cell Growth ([1]; 25 μM, 72 hours) | Degree of Cell Growth ([1]; 50 μM, 24 hours) | Degree of Cell Growth ([1]; 50 μM, 48 hours) | Degree of Cell Growth ([1]; 50 μM, 72 hours) | Degree of Cell Growth ([1]; 100 μM, 24 hours) | Degree of Cell Growth ([1]; 100 μM, 48 hours) | Degree of Cell Growth ([1]; 100 μM, 72 hours) | Degree of Cell Growth ([1]; 150 μM, 24 hours) | Degree of Cell Growth ([1]; 150 μM, 48 hours) | Degree of Cell Growth ([1]; 150 μM, 72 hours) | death (mice) | Degree of Cell Growth (U937 cells; 50 μM, 24 hours) | Degree of Cell Growth (U937 cells; 50 μM, 48 hours) | Degree of Cell Growth (U937 cells; 50 μM, 72 hours) | Degree of Cell Growth (U937 cells; 75 μM, 24 hours) | Degree of Cell Growth (U937 cells; 75 μM, 48 hours) | Degree of Cell Growth (U937 cells; 75 μM, 72 hours) | Degree of Cell Growth (U937 cells; 100 μM, 24 hours) | also measured |
| --- | --- | --- | --- | --- | --- | --- | --- | --- | --- | --- | --- | --- | --- | --- | --- | --- | --- | --- | --- | --- | --- |
| O=CC=CC(O)CO (single isomer, unassigned) [4,5-dihydroxy-2-pentenal, trans-4,5-dihydroxy-2-pentenal] | 3.39 A450-650 | 2.69 A450-650 | 1.70 A450-650 | 1.97 A450-650 | 2.96 A450-650 | 1.70 A450-650 | 1.81 A450-650 | 2.70 A450-650 | 0.89 A450-650 | 1.40 A450-650 | 0.79 A450-650 | 0.35 A450-650 | no case of death | 0.821 A450-650 | 1.471 A450-650 | 1.245 A450-650 | 0.606 A450-650 | 0.879 A450-650 | 0.862 A450-650 | 0.560 A450-650 | intensity of induction of heat shock protein of 70 kDa ([2]; HL-60, 25 μM): ±; intensity of induction of heat shock protein of 70 kDa ([2]; HL-60, 50 μM): +++; intensity of induction of heat shock protein of 70 kDa ([2]; HL-60, 100 μM): −; Degree of Cell Growth (U937 cells; 100 μM, 48 hours): 0.948 A450-650; Degree of Cell Growth (U937 cells; 100 μM, 72 hours): 0.597 A450-650; Degree of Cell Growth (U937 cells; 150 μM, 24 hours): 0.505 A450-650; Degree of Cell Growth (U937 cells; 150 μM, 48 hours): 0.823 A450-650; Degree of Cell Growth (U937 cells; 150 μM, 72 hours): 0.465 A450-650; Degree of Cell Growth (U937 cells; 200 μM, 24 hours): 0.370 A450-650; Degree of Cell Growth (U937 cells; 200 μM, 48 hours): 0.644 A450-650; Degree of Cell Growth (U937 cells; 200 μM, 72 hours): 0.753 A450-650 |
| Nc1nc2c(ncn2C2C=CC(=O)C2)c(=O)[nH]1 (centres unmarked) [4-(9-guaninyl)-2-cyclopenten-1-one] |  |  |  |  |  |  |  |  |  |  |  |  |  |  |  |  |  |  |  |  | production of human FGF-β (human FGF-β): inhibited |
| O=C1C=CC(O)C1 (centres unmarked) [4-hydroxy-2-cyclopenten-1-one] | 1.30 A450-650 | 0.70 A450-650 | 0.49 A450-650 | 1.38 A450-650 | 0.81 A450-650 | 0.47 A450-650 | 1.31 A450-650 | 0.56 A450-650 | 0.35 A450-650 | 1.23 A450-650 | 0.43 A450-650 | 0.30 A450-650 | no case of death | 0.501 A450-650 | 0.930 A450-650 | 0.875 A450-650 | 0.557 A450-650 | 0.968 A450-650 | 0.821 A450-650 | 0.591 A450-650 | intensity of induction of heat shock protein of 70 kDa ([2]; HL-60, 5 μM): ±; intensity of induction of heat shock protein of 70 kDa ([2]; HL-60, 20 μM): +++; intensity of induction of heat shock protein of 70 kDa ([2]; HL-60, 40 μM): ++; intensity of induction of heat shock protein of 70 kDa ([2]; HL-60, 80 μM): ±; production of human FGF-β (human FGF-β): inhibited; Degree of Cell Growth (U937 cells; 100 μM, 48 hours): 1.054 A450-650; Degree of Cell Growth (U937 cells; 100 μM, 72 hours): 0.532 A450-650; Degree of Cell Growth (U937 cells; 150 μM, 24 hours): 0.524 A450-650; Degree of Cell Growth (U937 cells; 150 μM, 48 hours): 1.126 A450-650; Degree of Cell Growth (U937 cells; 150 μM, 72 hours): 0.478 A450-650; Degree of Cell Growth (U937 cells; 200 μM, 24 hours): 0.353 A450-650; Degree of Cell Growth (U937 cells; 200 μM, 48 hours): 0.643 A450-650; Degree of Cell Growth (U937 cells; 200 μM, 72 hours): 0.338 A450-650 |
